Results reported in patent publication US20230113944A1, “COMPOSITIONS AND METHODS FOR THE TREATMENT OF NEURODEGENERATIVE DISEASES” (priority 2020, published 2023).
“And” between values parts separate entries of the source, which are not always exact repeats. Equal values may be shown once. “Also recorded” adds a separate entry of the source.

Legend:
Human AChE = molecular target: T1, Human AChE (Homo sapiens, UniProt P22303); assay: biochemical; details: read-out: AChE IC50
T1 construct: purchased Sigma
Experimental: This acetylcholinesterase (AChE) assay is based on an Amplex Red assay kit (Thermo Fisher A12217). Human AChE (Sigma) was used. Briefly, 5 μL of compounds at the desired concentration were loaded into wells of a 384-well plate. Then, 5 μl of human AChE (30 mU/mL) was loaded into each well, followed by the addition of 10 μL of the working solution which contains 400 μM Amplex Red reagent, 2 U/mL HRP, 0.2 U/mL choline oxidase, and 100 μM acetylcholine. The reaction was monitored for 60 minutes and read at 530/590 nm. AChE IC50 was determined by plotting AChE activity as a percentage of DMSO control using GraphPad Prism software.

[1] = Parallel artificial membrane permeability (IAM column) prediction of CNS permeability; assay type: in vitro ADME; details: PAMPA, 2 mM
Experimental: To predict the potential for brain permeability, a Regis Technologies analytical column connected to an Agilent HPLC system (Infinity 1260 quaternary pump and multiple wavelength detector; 1200 autosampler) was used. An IAM.PC.DD column was (4.6 mm i.d.×10 cm, particle size 5 μm; pore size 300 Å) conditioned with 20 column volumes of mobile phase or until a stable line was achieved. A mobile phase with a consistent flow rate of 1 mL/min was used comprising 100 mM Na2PO4 (solvent A) and acetonitrile (solvent B); compounds were eluted using a gradient (min/% B: 0/30, 10/60, 11/30, 15/30). Detector settings were 220, 250 and 280 nm and acquisition time was 15 min. The autosampler injected 10 μL of compound at 2 mM final, diluted from 10 mM in DMSO in 70:30 (water:acetonitrile). After elution, compound retention and void volume times were obtained from the chromatogram. The IAM capacity factor: (KIAM) was calculated using the equation: […]
where tr is the retention time of a compound and t0 is the void volume time of the column. To predict CNS permeability, we used the correlation described by the formula below.

[2] = tested on: HEK293T Tau RD P301S FRET biosensor (tau biosensor) cells; assay: Donor plus Recipient (D+R) tau propagation assay; assay type: cell-based; details: 20 μM
Experimental: HEK293T Tau RD P301S FRET biosensor (tau biosensor) cells were grown in Dulbecco's Modified Eagle's medium (DMEM) with high glucose, 10% FBS, and 1% Penicillin-streptomycin at 37° C./5% CO2. The lead inhibitors were tested in functional tau propagation “D+R” (Donors plus Recipients) and EMT (EV-mediated transfer) assays using the tau biosensors. Briefly, tau aggregation in donor cells (D) was induced by transfection of tau biosensor cells with human AD brain derived synaptosomal extracts (35 μg of synaptosomal fraction for 5 million cells in one 10 cm dish); control cells were treated with corresponding amount of transfection reagent lipofectamine 2000. After 24 hr incubation, the cells were trypsinized and plated together with DID-labeled recipient cells (R) in a 1:1 ratio in 96-well plates (15,000 of each cell type per well) for D+R assay or 1.5 million of donor cells per well in 6-well plates for EMT assay. Tested compounds or a corresponding amount of DMSO (0.2%) was added to the cell culture medium, DMEM, which contained 10% of exosome-depleted FBS (ThermoFisher, A2720803). Four technical replicates were used for each experimental condition. The inhibitors were tested at 20 μM concentration. […] Tau seed transfer from donor to recipient cells results in FRET signal generation in the DID-positive recipient cells, which was measured by flow cytometry. Integrated FRET density was calculated in the top 30% of DID-positive cell based on DID signal intensity.
An Attune NxT Flow Cytometer (Invitrogen) equipped with an autosampler and FRET-compatible laser lines and filter sets was used for FRET signal detection. The FRET (CFP/YFP) signal was excited by a 405 nm laser for CFP excitation and detected in the YFP image detection channel. Flow cytometry data was analyzed using FCS Express version 5 software (DeNovo Software California, USA). Integrated FRET density was calculated as a product of percentage FRET positive cells and median of fluorescent intensity of the FRET positive cells as previously established.

[3] = tested on: HEK293T Tau RD P301S FRET biosensor (tau biosensor) cells; assay: EV-mediated tau seed transfer (EMT) assay; assay type: cell-based; details: 20 μM
Experimental: HEK293T Tau RD P301S FRET biosensor (tau biosensor) cells were grown in Dulbecco's Modified Eagle's medium (DMEM) with high glucose, 10% FBS, and 1% Penicillin-streptomycin at 37° C./5% CO2. The lead inhibitors were tested in functional tau propagation “D+R” (Donors plus Recipients) and EMT (EV-mediated transfer) assays using the tau biosensors. Briefly, tau aggregation in donor cells (D) was induced by transfection of tau biosensor cells with human AD brain derived synaptosomal extracts (35 μg of synaptosomal fraction for 5 million cells in one 10 cm dish); control cells were treated with corresponding amount of transfection reagent lipofectamine 2000. After 24 hr incubation, the cells were trypsinized and plated together with DID-labeled recipient cells (R) in a 1:1 ratio in 96-well plates (15,000 of each cell type per well) for D+R assay or 1.5 million of donor cells per well in 6-well plates for EMT assay. Tested compounds or a corresponding amount of DMSO (0.2%) was added to the cell culture medium, DMEM, which contained 10% of exosome-depleted FBS (ThermoFisher, A2720803). Four technical replicates were used for each experimental condition. The inhibitors were tested at 20 μM concentration. In 48 hours 50 μL of culture medium per well were collected for cell viability test (Cytotox 96 non-radioactive cytotoxicity assay, Promega Corp., Madison, Wis.). The cells in D+R assay were harvested at the 48 hr time point and fixed with 2% paraformaldehyde for flow cytometry analysis according to published protocol. Tau seed transfer from donor to recipient cells results in FRET signal generation in the DID-positive recipient cells, which was measured by flow cytometry. Integrated FRET density was calculated in the top 30% of DID-positive cell based on DID signal intensity.
For the EMT assay, cell culture medium from donor cells growing for 48 hours with the compounds at concentrations of 20 μM or a corresponding amount of DMSO (0.2%), was collected and EVs were purified using the ExoQuick-TC kit (SBI biosciences) according to the manufacturer's instructions. Naïve recipient cells were plated in 96 well plates at a density of 20,000 cells per well in exosome-free medium and transfected with donor cell-derived exosomes at 12 hrs. The recipient cells were harvested 60 hours after transfection and FRET signals were analyzed using flow cytometry.
An Attune NxT Flow Cytometer (Invitrogen) equipped with an autosampler and FRET-compatible laser lines and filter sets was used for FRET signal detection. […] Flow cytometry data was analyzed using FCS Express version 5 software (DeNovo Software California, USA). Integrated FRET density was calculated as a product of percentage FRET positive cells and median of fluorescent intensity of the FRET positive cells as previously established.

[4] = Brain pharmacokinetic analysis after SQ dosing
Experimental: Pharmacokinetic (PK) analysis on the leads 8 and 11 to determine brain permeability using wild type mice was performed. The compounds were subcutaneously (SQ) injected at a dose of 20 mg per kg of body weight (mpk). Brain and plasma samples were collected 1, 2, and 4 hours after dosing.

[5] = tested on: Tau P301S (PS19 line) tauopathy mouse model; assay: Rapid in vivo assay: IL1β-induced brain EV release; parameters: species or system mice
[6] = tested on: donor cells (tau biosensor cells); assay: Donor cell number and viability in EMT assay; assay type: cell-based; details: 48 hours after sub-culture, 20 μM, vs DMSO
Experimental: HEK293T Tau RD P301S FRET biosensor (tau biosensor) cells were grown in Dulbecco's Modified Eagle's medium (DMEM) with high glucose, 10% FBS, and 1% Penicillin-streptomycin at 37° C./5% CO2. The lead inhibitors were tested in functional tau propagation “D+R” (Donors plus Recipients) and EMT (EV-mediated transfer) assays using the tau biosensors. Briefly, tau aggregation in donor cells (D) was induced by transfection of tau biosensor cells with human AD brain derived synaptosomal extracts (35 μg of synaptosomal fraction for 5 million cells in one 10 cm dish); control cells were treated with corresponding amount of transfection reagent lipofectamine 2000. After 24 hr incubation, the cells were trypsinized and plated together with DID-labeled recipient cells (R) in a 1:1 ratio in 96-well plates (15,000 of each cell type per well) for D+R assay or 1.5 million of donor cells per well in 6-well plates for EMT assay. Tested compounds or a corresponding amount of DMSO (0.2%) was added to the cell culture medium, DMEM, which contained 10% of exosome-depleted FBS (ThermoFisher, A2720803). […] Tau seed transfer from donor to recipient cells results in FRET signal generation in the DID-positive recipient cells, which was measured by flow cytometry. Integrated FRET density was calculated in the top 30% of DID-positive cell based on DID signal intensity.

[7] = tested on: HEK293T Tau RD P301S FRET biosensor (tau biosensor) cells; assay: EV-mediated tau seed transfer (EMT) assay; assay type: cell-based; details: 20 μM; remark: listed apart in the source
[8] = molecular target: human serum albumin (HSA) (Homo sapiens, UniProt P02768); assay: Binding to human serum albumin (HSA)
[9] = tested on: HEK293T Tau RD P301S FRET biosensor cells; assay: Tau biosensor cells seeded with AD brain synaptosomal (P2) extract, FRET signal; assay type: cell-based; details: 10 μM, imaged after 24 hrs, vs DMSO
Experimental: Brain autopsy samples were obtained from the University of California Irvine, University of Southern California AD Research Centers, and University of California, Los Angeles. Brain tissue was cryopreserved and synaptosomal fractions (P2-fractions, or P2) were prepared as previously described. In order to prepare P2-extracts, aliquots were quickly defrosted at 37° C. and centrifuged at 10,000×g for 10 min at 4° C. to remove P2 from sucrose. After aspirating the supernatant, cold PBS was added to each sample in Ma 1:5 weight/volume ratio. Samples were then sonicated in 10-second intervals three times, incubated on ice for 30 min and centrifuged at 20,000 g for 20 min at 4° C. P2 extracts were collected and stored at −80° C. Tau biosensor cell treatment and analysis. HEK293T Tau RD P301S FRET biosensor cells (tau biosensors) were growing in the Dulbecco's Modified Eagle's medium (DMEM) with higher glucose, 10% FBS, and 1% Penicillin-streptomycin at 37° C./5% CO2. Cells were plated in 10-sm dishes (3 million cells per dish in the regular medium) and grown for 12 hrs. Cells were transduced with pulled synaptosomal (P2) extracts from AD cases using lipofectamine 2000. […]
Cells were imaged after 24 hrs using automated microscope imaging system (Lionheart FX) equipped with 20× objective and CFP-YFP FRET Image filter cube. […] FRET signal was detected using LSRII flow cytometer (BD biosciences). […]

human serum albumin (HSA), sequence (P02768 25-609): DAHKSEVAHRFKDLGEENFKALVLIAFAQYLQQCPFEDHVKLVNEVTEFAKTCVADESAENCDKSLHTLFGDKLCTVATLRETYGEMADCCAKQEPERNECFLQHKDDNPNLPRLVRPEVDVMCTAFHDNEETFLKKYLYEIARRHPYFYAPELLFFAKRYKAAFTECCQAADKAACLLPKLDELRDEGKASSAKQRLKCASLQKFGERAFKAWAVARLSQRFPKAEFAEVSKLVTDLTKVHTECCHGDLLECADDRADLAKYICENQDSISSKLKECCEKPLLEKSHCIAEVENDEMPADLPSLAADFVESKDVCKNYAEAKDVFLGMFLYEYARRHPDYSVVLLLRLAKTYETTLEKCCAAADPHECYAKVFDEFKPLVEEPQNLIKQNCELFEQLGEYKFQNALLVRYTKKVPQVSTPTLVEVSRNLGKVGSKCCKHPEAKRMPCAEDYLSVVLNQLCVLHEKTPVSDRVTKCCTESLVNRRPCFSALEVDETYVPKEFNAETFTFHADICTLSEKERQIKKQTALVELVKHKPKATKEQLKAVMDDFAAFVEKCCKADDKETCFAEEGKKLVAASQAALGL
T1 sequence (P22303 32-614): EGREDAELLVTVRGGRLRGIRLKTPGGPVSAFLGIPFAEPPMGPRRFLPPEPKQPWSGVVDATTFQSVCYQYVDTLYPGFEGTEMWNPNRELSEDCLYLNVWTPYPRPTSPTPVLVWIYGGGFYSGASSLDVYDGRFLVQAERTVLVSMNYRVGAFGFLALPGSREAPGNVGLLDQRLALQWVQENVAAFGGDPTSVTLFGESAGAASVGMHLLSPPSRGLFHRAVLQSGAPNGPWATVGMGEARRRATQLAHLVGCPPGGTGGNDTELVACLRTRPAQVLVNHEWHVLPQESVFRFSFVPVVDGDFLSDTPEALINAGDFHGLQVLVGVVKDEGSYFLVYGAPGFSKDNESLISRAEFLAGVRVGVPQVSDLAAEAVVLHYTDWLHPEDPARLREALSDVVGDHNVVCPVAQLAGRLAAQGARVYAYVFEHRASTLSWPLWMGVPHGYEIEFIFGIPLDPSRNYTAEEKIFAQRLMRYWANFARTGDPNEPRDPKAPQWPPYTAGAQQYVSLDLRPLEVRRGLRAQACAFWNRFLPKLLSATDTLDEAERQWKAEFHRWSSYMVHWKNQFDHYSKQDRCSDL

## CN1c2ccc(OC(=O)Nc3cccnc3)cc2[C@]2(C)CCO[C@H]12 [Compound 11]
Human AChE
  IC50: 1700 nM
[1]
  CNS perm (PAMPA): 1.8
[2]
  decrease of FRET fluorescence density from DMSO-control, D+R assay: 19.5%
[2]; 48 hrs
  tau seed transfer from donor to recipient cells, D+R assay: suppress tau propagation; also recorded: significantly suppresses
[3]
  decrease of FRET fluorescence density from DMSO-control, EMT assay: 41.3%
[3]; donor cells 48 hrs
  tau seed transfer from donor to recipient cells, EMT assay: suppress tau propagation; also recorded: significantly suppresses
[4]; mice, 20 mg/kg SQ
  brain penetration (compound levels in brain tissue, LC-MS/MS): penetrated the brain
[4]; mouse, in vivo, 20 mg/kg
  concentration at 1 h: 262 ng/g and ~800 nM
[4]; wild type mice, 20 mg/kg SQ
  time of peak brain levels after SQ dosing: around one
[5]; 20 mg/kg SQ
  IL1β-induced tau release by exosomes: significantly reduced
  difference in CD11b levels (microglia-derived exosomes) vs IL1β group: not significant
  exosome-associated BIN1 upon IL1β stimulation: lower
[5]; 20 mg/kg SQ, vs IL1β group
  level of astrocyte-derived exosomes (GLAST): significantly reduced
[5]; 20 mg/kg SQ, vs IL1β only group
  exosomal marker CD63 in exosome-enriched F2 fractions: significant reduction
[5]; mouse, in vivo, 20 mg/kg
  IL1β-induced brain EV / exosomal release (small EV concentration, TRPS): diminished IL1β-induced brain EV release; also recorded: suppressed IL1β-induced exosomal release to the control level
[6]
  donor cell numbers or survival: didn't affect
[7]
  EV size distribution of donor-derived EVs (TRPS): did not affect
  concentrations of exosomal-type small EVs from donor cells: decreased
[7]; vs DMSO control
  levels of exosomal markers CD63, CD81, and syntenin-1 in donor EVs: reduced
[8]
  degree of binding to human serum albumin (HSA): low degree of binding
[8]; human, human serum albumin
  fraction unbound: 0.31

## O=c1[nH]c(=S)[nH]c(-c2ccccc2)c1Cc1c(O)ccc2ccccc12 [DDL-112, cambinol]
[9]
  amount of FRET-positive tau aggregates (microscopy): visibly decreased
